One assay deals with HIG-82 synoviocytes. Put plainly: Cell proliferation assay (SRB), HIG-82 synoviocytes. Format: cell-based, rabbit. As to conditions: 24 or 48 h.
The subject of the next assay is NF-κB in RAW264.7 cells. Put plainly: NF-κB luciferase reporter gene assay, RANKL-induced. As to conditions: RAW264.7, 5 nM, RANKL 50 ng/ml 24 h. The assay is classed as cell-based, mouse. As for the experimental part: We also assessed the effect of MTP0G009 on the DNA-binding activity of NF-κB and NFATc1, two pivotal transcriptional factors involved in RANKL-induced pathways for promoting osteoclast differentiation.[14], [15] When RAW264.7 cells that had been transiently transfected with reporter plasmids were treated with 5 nM MPT0G009 for 30 min before and during 24-h stimulation with RANKL, MPT0G009 inhibited RANKL-induced NF-κB (Figure 3d) and NFATc1 (Figure 3e) luciferase activity.
RAW264.7 cells or RA-FLSs were seeded 1 day before transfection. […] For the reporter gene assay, 100 μl of reporter lysis buffer (Promega Corp.) was added, then the cells were scraped off the dishes, centrifuged at 17 000 g for 30 s at 4 °C and the supernatants collected. Aliquots of cell lysates (20 μl) were placed in the wells of an opaque black 96-well microtiter plate, then 40 μl of luciferase substrate (Promega Corp.) was added and the luminescence immediately measured in a microplate luminometer (Beckman Coulter, Krefeld, Germany).

The target in another assay is T1, recombinant HDAC8 (Homo sapiens, UniProt Q9BY41).
T1 construct: purchased BPS Bioscience Corp. (San Diego, CA, USA)
T1 sequence (Q9BY41 whole entry): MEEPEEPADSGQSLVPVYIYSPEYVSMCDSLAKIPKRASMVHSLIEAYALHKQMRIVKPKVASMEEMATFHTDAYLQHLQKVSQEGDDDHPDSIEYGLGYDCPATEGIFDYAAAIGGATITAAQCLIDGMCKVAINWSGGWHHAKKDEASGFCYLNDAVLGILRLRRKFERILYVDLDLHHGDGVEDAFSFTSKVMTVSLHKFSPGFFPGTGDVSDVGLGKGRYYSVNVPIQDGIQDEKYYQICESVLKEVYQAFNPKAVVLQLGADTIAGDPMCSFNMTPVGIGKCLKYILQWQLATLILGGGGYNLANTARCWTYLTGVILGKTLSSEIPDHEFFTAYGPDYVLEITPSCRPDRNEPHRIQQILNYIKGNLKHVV
Put plainly: Fluorogenic assay kit, recombinant HDAC8 enzyme activity. Format: biochemical. To be noted: mean±S.E.M., three replicate experiments; read-out: IC50 (nM) of HDAC isoforms enzyme, DHAC8. An excerpt: (§1) Using kits that contained different recombinant HDAC isoforms, we evaluated the ability of MPT0G009 to inhibit HDAC-mediated deacetylation of lysine residues on the substrates that were provided. […] Fluorogenic HDAC assay kits were used to assess the ability of HDAC inhibitors to inhibit deacetylation of lysine residues on the substrate by recombinant HDAC1, 2, 3, 4, 6 or 8 according to the manufacturer's instructions.

In another assay the test system is RA-FLS. Put plainly: Cell cycle distribution by propidium iodide flow cytometry. The assay is classed as cell-based, human. To be noted: RA-FLS 24 h, MPT0G009 1–1000 nM, SAHA 3–3000 nM.
In the next assay the target is T2, recombinant HDAC6 (Homo sapiens, UniProt Q9UBN7).
T2 construct: purchased BPS Bioscience Corp. (San Diego, CA, USA)
T2 sequence (Q9UBN7 whole entry): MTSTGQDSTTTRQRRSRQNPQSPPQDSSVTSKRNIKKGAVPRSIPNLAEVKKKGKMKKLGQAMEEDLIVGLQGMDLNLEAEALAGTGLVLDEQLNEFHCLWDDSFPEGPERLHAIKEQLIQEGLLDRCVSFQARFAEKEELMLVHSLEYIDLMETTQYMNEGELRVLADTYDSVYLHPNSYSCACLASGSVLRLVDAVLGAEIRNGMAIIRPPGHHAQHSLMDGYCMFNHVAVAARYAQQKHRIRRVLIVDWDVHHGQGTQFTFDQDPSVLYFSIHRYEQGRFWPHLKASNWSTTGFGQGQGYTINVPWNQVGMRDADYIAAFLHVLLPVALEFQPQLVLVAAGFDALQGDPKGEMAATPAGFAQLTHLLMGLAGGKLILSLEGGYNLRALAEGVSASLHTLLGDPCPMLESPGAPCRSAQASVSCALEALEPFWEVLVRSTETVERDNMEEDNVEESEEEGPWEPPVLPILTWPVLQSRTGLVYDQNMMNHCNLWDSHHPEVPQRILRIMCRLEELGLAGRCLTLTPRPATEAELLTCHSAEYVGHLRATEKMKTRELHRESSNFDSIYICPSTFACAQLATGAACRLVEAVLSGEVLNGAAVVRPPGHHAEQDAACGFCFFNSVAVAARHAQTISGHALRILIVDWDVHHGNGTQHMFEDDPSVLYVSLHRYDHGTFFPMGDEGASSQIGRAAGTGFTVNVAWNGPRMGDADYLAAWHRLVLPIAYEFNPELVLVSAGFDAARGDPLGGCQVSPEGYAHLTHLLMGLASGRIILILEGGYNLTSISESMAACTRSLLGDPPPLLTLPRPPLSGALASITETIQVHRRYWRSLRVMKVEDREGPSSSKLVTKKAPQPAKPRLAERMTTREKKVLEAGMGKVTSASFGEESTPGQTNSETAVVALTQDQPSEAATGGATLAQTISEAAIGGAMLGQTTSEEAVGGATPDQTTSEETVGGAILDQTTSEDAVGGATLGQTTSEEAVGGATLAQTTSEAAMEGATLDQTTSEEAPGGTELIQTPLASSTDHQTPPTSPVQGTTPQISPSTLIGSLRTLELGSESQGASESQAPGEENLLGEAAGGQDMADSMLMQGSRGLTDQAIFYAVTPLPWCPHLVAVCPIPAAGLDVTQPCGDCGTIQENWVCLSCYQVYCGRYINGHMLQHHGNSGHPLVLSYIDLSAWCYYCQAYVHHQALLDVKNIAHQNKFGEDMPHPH
Put plainly: Fluorogenic assay kit, recombinant HDAC6 enzyme activity. As to conditions: mean±S.E.M., three replicate experiments; read-out: IC50 (nM) of HDAC isoforms enzyme, HDAC6. The assay is classed as biochemical.
Description: as §1

A further assay relates to RAW264.7 cells. Put plainly: Inflammatory mediator production by LPS-stimulated RAW264.7 cells. Format: cell-based, mouse. As to conditions: RAW264.7, LPS 25 ng/ml 24 h; MPT0G009 0.1, 1 or 10 μM; SAHA 0.3, 3 or 30 μM. As to the method: (a) Structure of MPT0G009.
These supernatants were then assayed for prostaglandin E2 (PGE2), NO and IL-6.

Molecules are shown by their SMILES.

Turning to `COc1ccc(S(=O)(=O)N2CCc3cc(C=CC(=O)NO)ccc32)cc1` [MPT0G009, 3-[1-(4-methoxybenzenesulfonyl)-2,3-dihydro-1H-indol-5-yl]-N-hydroxyacrylamide], the anti-proliferative effect entry in the assay on HIG-82 synoviocytes is given as “concentration-dependent anti-proliferative effects”. In the assay with NF-κB in RAW264.7 cells, the “RANKL-induced NF-κB luciferase activity” value was “inhibited”. In addition, the IC50 at recombinant HDAC8 came to 22.5 ± 2.16 nM. The “subG1 peak (cellular apoptosis)” value with RA-FLS is “did not increase the subG1 peak”. The cell cycle arrest entry in the assay on RA-FLS (all concentrations) was “G0/G1 phase arrest”. The IC50 at recombinant HDAC6 worked out at 8.43 ± 0.72 nM. In the assay on RAW264.7 cells, the NO production result was “inhibited” and the PGE2 production entry was “inhibited”.

The record behind these values is publication PMC5424110, “Preclinical anti-arthritic study and pharmacokinetic properties of a potent histone deacetylase inhibitor MPT0G009” (Cell Death & Disease, 2014).
